Experimental findings from patent publication US12441726B2, “Compounds and uses thereof” (Foghorn Therapeutics Inc., priority 2020, dated 2025) are described below.

For the first test, the target named is BRG-1 (Homo sapiens, UniProt P51532). As to the kind of experiment: ATPase catalytic activity assay (ADP-Glo), BRG-1.
Sequence of BRG-1 (P51532 whole entry): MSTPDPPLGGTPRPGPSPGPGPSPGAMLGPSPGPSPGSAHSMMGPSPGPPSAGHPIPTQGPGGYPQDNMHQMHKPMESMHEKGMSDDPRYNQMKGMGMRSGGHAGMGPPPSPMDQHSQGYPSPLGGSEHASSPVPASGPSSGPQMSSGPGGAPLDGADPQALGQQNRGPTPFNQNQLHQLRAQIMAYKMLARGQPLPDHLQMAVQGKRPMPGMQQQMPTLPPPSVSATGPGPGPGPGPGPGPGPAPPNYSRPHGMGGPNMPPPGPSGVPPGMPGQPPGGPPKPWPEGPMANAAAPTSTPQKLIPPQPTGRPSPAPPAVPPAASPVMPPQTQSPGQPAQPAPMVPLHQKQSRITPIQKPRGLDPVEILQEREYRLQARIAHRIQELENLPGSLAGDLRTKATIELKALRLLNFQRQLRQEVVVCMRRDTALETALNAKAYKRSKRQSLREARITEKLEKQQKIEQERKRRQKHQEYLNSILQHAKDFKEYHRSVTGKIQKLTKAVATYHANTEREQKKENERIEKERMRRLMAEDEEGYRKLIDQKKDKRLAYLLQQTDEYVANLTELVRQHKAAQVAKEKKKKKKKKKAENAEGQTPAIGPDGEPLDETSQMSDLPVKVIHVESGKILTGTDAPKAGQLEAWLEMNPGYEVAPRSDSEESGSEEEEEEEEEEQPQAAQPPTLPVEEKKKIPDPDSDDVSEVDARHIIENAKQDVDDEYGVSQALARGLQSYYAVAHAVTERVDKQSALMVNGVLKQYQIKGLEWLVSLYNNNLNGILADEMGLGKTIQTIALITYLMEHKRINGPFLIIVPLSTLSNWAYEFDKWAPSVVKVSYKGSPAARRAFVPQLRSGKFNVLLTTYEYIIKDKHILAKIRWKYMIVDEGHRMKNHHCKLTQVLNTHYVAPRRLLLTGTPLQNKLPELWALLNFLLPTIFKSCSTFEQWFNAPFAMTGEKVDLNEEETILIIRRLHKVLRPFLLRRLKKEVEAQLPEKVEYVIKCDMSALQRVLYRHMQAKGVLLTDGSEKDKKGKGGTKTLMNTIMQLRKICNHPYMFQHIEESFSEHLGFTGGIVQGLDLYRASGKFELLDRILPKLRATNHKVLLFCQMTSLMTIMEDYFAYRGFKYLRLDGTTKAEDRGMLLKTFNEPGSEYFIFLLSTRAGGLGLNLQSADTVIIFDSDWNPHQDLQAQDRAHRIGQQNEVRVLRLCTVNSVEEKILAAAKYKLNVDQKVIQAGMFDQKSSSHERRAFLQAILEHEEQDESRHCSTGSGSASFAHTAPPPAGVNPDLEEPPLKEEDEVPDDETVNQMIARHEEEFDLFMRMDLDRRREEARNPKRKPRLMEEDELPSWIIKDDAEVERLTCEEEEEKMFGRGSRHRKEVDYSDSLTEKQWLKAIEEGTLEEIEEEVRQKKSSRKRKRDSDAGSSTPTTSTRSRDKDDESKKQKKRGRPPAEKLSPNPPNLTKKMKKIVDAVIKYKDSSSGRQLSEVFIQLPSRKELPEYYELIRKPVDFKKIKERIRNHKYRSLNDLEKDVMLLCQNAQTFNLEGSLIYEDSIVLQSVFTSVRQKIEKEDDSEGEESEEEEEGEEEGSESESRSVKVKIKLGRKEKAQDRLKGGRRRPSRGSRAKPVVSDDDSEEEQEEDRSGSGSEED
Conditions: not given
In turn, `Cn1c(C2CC2)cc2c(-c3ccc4cnc(CNC(=O)c5ccc6c(c5)[C@](C)(C#N)COC6)cc4n3)cccc21` [Compound 135] returned an IC50 of less than 100 nM.

`C[C@@]1(F)COCc2ccc(C(=O)NCc3cc(C#Cc4ccccc4)ccn3)cc21` [Compound 14] had an IC50 greater than 1000 nM.

Compound `CN(C)c1cccc(-c2ccc3cnc(CNC(=O)c4cnc5c(c4)[C@@](F)(C(F)F)COC5)cc3n2)n1` [Compound 227] gave an IC50 of 100 to 500 nM.

`C[C@@]1(C#N)COCc2ccc(C(=O)NCc3cc4nc(-c5ccccc5)sc4cn3)cc21` [Compound 124] came in with an IC50 greater than 1000 nM.

The compound `C[C@@]1(C#N)COCc2ccc(C(=O)NCc3cc4nc(-c5cnn6c5OCCC6)ccc4cn3)cc21` [Compound 405] yielded an IC50 of 500 to 1000 nM.

Regarding `C[C@@]1(C#N)COCc2ccc(C(=O)NCc3cc4nc(-c5cccc(C(F)F)c5)ccc4cn3)cc21` [Compound 98], the IC50 was greater than 1000 nM.

The compound `COC(=O)N1CCCC(C#Cc2ccnc(CNC(=O)c3ccc4c(c3)[C@](C)(C#N)COC4)c2)C1` (stereo partly drawn) [Compound 5] yielded an IC50 greater than 1000 nM.

`COc1cncc(-c2ccc3cnc(CNC(=O)c4ccc5c(c4)[C@](C)(C#N)COC5)cc3n2)c1` [Compound 482] came in with an IC50 of 500 to 1000 nM.

`C[C@@]1(C#N)COCc2ccc(C(=O)NCc3cc4nc(-c5cncc(N6CCC6)n5)ccc4cn3)cc21` [Compound 497] gave an IC50 of less than 100 nM.

In turn, `C[C@@]1(C#N)COCc2ccc(C(=O)NCc3cc4nc(-c5cccc(N6CCC6=O)c5)ccc4cn3)cc21` [Compound 393] displayed an IC50 of less than 100 nM.

Regarding `COc1cc(C)nn1-c1ccc2cnc(CNC(=O)c3ccc4c(c3)[C@](C)(C#N)COC4)cc2n1` [Compound 195], the IC50 was greater than 1000 nM.

Compound `COc1cnn(C)c1-c1ccc2cnc(CNC(=O)c3ccc4c(c3)[C@](C)(C#N)COC4)cc2n1` [Compound 297] gave an IC50 of 500 to 1000 nM.

As for `COc1ncccc1-c1nc2cc(CNC(=O)c3ccc4c(c3)[C@](C)(C#N)COC4)ncc2s1` [Compound 354], the IC50 is greater than 1000 nM.

Compound `COc1cccc2c1CCN(c1ccnc(CNC(=O)c3ccc4c(c3)[C@](C)(C#N)COC4)c1)C2` [Compound 56] came in with an IC50 of 100 to 500 nM.

Compound `C[C@@]1(C#N)COCc2c(F)cc(C(=O)NCc3cc4nc(-c5cncc(N6CCC6)n5)ccc4cn3)cc21` [Compound 399] came in with an IC50 of 100 to 500 nM.

In turn, `CN(C)C(=O)c1cccc(-c2ccc3cnc(CNC(=O)c4ccc5c(c4)[C@](C)(C#N)COC5)cc3n2)c1` [Compound 490] had an IC50 greater than 1000 nM.

For `C[C@@]1(F)COCc2ncc(C(=O)NCc3cc4nc(-c5ccccc5)ccc4cn3)cc21` [Compound 413], the half-maximal inhibitory concentration (IC50) was in the range of 500 to 1000 nM.

`C[C@@]1(C#N)COCc2ncc(C(=O)NCc3cc4nc(-c5ccccc5)ccc4cn3)cc21` [Compound 122] came in with an IC50 greater than 1000 nM.

The test is the same for the next values; noted with them: 1 h, read-out: BRG1 Max % Inhibition, ADP-Glo, 30 nM BRG-1, 400 μM ATP.
Consider `Cn1c(C2CC2)cc2c(-c3ccc4cnc(CNC(=O)c5ccc6c(c5)[C@](C)(C#N)COC6)cc4n3)cccc21` [Compound 135], for which the Emax was 98%.

For `C[C@@]1(F)COCc2ccc(C(=O)NCc3cc(C#Cc4ccccc4)ccn3)cc21` [Compound 14], the Emax amounted to 64%.

As for `CN(C)c1cccc(-c2ccc3cnc(CNC(=O)c4cnc5c(c4)[C@@](F)(C(F)F)COC5)cc3n2)n1` [Compound 227], the Emax turned out to be 94%.

Consider `C[C@@]1(C#N)COCc2ccc(C(=O)NCc3cc4nc(-c5ccccc5)sc4cn3)cc21` [Compound 124], for which the Emax amounted to 98%.

Consider `C[C@@]1(C#N)COCc2ccc(C(=O)NCc3cc4nc(-c5cnn6c5OCCC6)ccc4cn3)cc21` [Compound 405], for which the Emax is 55%.

For `C[C@@]1(C#N)COCc2ccc(C(=O)NCc3cc4nc(-c5cccc(C(F)F)c5)ccc4cn3)cc21` [Compound 98], the Emax was 81%.

Turning to `COC(=O)N1CCCC(C#Cc2ccnc(CNC(=O)c3ccc4c(c3)[C@](C)(C#N)COC4)c2)C1` (stereo partly drawn) [Compound 5], the Emax is 12%.

For `COc1cncc(-c2ccc3cnc(CNC(=O)c4ccc5c(c4)[C@](C)(C#N)COC5)cc3n2)c1` [Compound 482], the Emax was determined as 55%.

On to `C[C@@]1(C#N)COCc2ccc(C(=O)NCc3cc4nc(-c5cncc(N6CCC6)n5)ccc4cn3)cc21` [Compound 497], for which the Emax came to 97%.

Consider `C[C@@]1(C#N)COCc2ccc(C(=O)NCc3cc4nc(-c5cccc(N6CCC6=O)c5)ccc4cn3)cc21` [Compound 393], for which the Emax was 96%.

`COc1cc(C)nn1-c1ccc2cnc(CNC(=O)c3ccc4c(c3)[C@](C)(C#N)COC4)cc2n1` [Compound 195]: the Emax turned out to be 47%.

Turning to `COc1cnn(C)c1-c1ccc2cnc(CNC(=O)c3ccc4c(c3)[C@](C)(C#N)COC4)cc2n1` [Compound 297], the Emax came out at 66%.

In the case of `COc1ncccc1-c1nc2cc(CNC(=O)c3ccc4c(c3)[C@](C)(C#N)COC4)ncc2s1` [Compound 354], the Emax was 39%.

Consider `COc1cccc2c1CCN(c1ccnc(CNC(=O)c3ccc4c(c3)[C@](C)(C#N)COC4)c1)C2` [Compound 56], for which the Emax was determined as 92%.

As to `C[C@@]1(C#N)COCc2c(F)cc(C(=O)NCc3cc4nc(-c5cncc(N6CCC6)n5)ccc4cn3)cc21` [Compound 399], the Emax worked out at 98%.

As to `CN(C)C(=O)c1cccc(-c2ccc3cnc(CNC(=O)c4ccc5c(c4)[C@](C)(C#N)COC5)cc3n2)c1` [Compound 490], the Emax amounted to 40%.

For the compound `C[C@@]1(F)COCc2ncc(C(=O)NCc3cc4nc(-c5ccccc5)ccc4cn3)cc21` [Compound 413], the Emax was 51%.

With `C[C@@]1(C#N)COCc2ncc(C(=O)NCc3cc4nc(-c5ccccc5)ccc4cn3)cc21` [Compound 122], the Emax was 62%.

In the next test the target is BRM (Homo sapiens, UniProt P51531). As to the kind of experiment: ATPase catalytic activity assay (ADP-Glo), BRM. To be noted: 30 nM BRM, 400 μM ATP.
Sequence of BRM (P51531 whole entry): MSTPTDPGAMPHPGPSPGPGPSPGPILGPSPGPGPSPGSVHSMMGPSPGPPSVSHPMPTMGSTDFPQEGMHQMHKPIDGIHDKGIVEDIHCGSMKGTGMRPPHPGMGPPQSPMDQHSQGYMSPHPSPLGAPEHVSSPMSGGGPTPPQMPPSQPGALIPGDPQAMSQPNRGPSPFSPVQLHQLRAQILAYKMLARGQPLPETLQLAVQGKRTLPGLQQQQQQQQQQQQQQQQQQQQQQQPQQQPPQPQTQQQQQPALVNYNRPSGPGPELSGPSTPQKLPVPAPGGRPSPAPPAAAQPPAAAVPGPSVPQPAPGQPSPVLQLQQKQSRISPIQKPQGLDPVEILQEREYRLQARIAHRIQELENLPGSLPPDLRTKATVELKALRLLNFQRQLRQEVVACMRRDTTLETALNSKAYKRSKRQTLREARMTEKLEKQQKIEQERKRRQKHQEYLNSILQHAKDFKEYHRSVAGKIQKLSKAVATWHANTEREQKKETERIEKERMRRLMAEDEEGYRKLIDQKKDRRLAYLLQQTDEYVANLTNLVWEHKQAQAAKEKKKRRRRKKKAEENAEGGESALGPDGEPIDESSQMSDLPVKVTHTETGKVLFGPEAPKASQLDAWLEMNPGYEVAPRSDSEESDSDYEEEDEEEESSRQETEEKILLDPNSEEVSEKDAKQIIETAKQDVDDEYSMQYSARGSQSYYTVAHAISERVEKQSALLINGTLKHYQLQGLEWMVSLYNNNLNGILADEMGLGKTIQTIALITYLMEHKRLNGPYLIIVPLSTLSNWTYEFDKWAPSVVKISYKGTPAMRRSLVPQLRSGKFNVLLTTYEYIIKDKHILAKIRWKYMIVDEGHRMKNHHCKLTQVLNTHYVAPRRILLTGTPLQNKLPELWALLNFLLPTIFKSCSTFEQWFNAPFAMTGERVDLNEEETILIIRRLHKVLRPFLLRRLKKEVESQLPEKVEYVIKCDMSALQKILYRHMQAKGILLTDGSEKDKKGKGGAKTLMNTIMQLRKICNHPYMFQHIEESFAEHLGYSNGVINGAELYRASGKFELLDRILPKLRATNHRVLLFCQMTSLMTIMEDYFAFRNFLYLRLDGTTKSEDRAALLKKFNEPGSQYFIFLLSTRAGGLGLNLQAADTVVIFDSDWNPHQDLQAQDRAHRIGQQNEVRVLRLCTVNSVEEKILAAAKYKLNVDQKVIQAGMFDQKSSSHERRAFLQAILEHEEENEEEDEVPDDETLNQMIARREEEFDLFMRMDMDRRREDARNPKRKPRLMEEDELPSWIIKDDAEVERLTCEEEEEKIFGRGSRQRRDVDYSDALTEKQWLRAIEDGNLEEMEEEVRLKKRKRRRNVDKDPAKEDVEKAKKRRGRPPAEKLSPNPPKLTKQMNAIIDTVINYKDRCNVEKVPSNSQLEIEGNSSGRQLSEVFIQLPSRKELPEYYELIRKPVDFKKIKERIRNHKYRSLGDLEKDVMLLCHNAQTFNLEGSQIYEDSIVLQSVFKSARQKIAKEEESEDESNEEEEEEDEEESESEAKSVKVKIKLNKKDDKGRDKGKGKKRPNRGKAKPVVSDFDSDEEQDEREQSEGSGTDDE
Consider `Cn1c(C2CC2)cc2c(-c3ccc4cnc(CNC(=O)c5ccc6c(c5)[C@](C)(C#N)COC6)cc4n3)cccc21` [Compound 135], for which the “BRM Max % Inhibition” value amounted to 103%.

Take `C[C@@]1(F)COCc2ccc(C(=O)NCc3cc(C#Cc4ccccc4)ccn3)cc21` [Compound 14]: the “BRM Max % Inhibition” value came out at 94%.

For `CN(C)c1cccc(-c2ccc3cnc(CNC(=O)c4cnc5c(c4)[C@@](F)(C(F)F)COC5)cc3n2)n1` [Compound 227], the “BRM Max % Inhibition” value turned out to be 99%.

Regarding `C[C@@]1(C#N)COCc2ccc(C(=O)NCc3cc4nc(-c5ccccc5)sc4cn3)cc21` [Compound 124], the “BRM Max % Inhibition” value worked out at 97%.

On to `C[C@@]1(C#N)COCc2ccc(C(=O)NCc3cc4nc(-c5cnn6c5OCCC6)ccc4cn3)cc21` [Compound 405], for which the “BRM Max % Inhibition” value was 85%.

Regarding `C[C@@]1(C#N)COCc2ccc(C(=O)NCc3cc4nc(-c5cccc(C(F)F)c5)ccc4cn3)cc21` [Compound 98], the “BRM Max % Inhibition” value was 97%.

As to `COC(=O)N1CCCC(C#Cc2ccnc(CNC(=O)c3ccc4c(c3)[C@](C)(C#N)COC4)c2)C1` (stereo partly drawn) [Compound 5], the “BRM Max % Inhibition” value stood at 64%.

For `COc1cncc(-c2ccc3cnc(CNC(=O)c4ccc5c(c4)[C@](C)(C#N)COC5)cc3n2)c1` [Compound 482], the “BRM Max % Inhibition” value was 90%.

As to `C[C@@]1(C#N)COCc2ccc(C(=O)NCc3cc4nc(-c5cncc(N6CCC6)n5)ccc4cn3)cc21` [Compound 497], the “BRM Max % Inhibition” value was determined as 100%.

`C[C@@]1(C#N)COCc2ccc(C(=O)NCc3cc4nc(-c5cccc(N6CCC6=O)c5)ccc4cn3)cc21` [Compound 393]: the “BRM Max % Inhibition” value is given as 99%.

As for `COc1cc(C)nn1-c1ccc2cnc(CNC(=O)c3ccc4c(c3)[C@](C)(C#N)COC4)cc2n1` [Compound 195], the “BRM Max % Inhibition” value amounted to 84%.

For `COc1cnn(C)c1-c1ccc2cnc(CNC(=O)c3ccc4c(c3)[C@](C)(C#N)COC4)cc2n1` [Compound 297], the “BRM Max % Inhibition” value was determined as 96%.

On to `COc1ncccc1-c1nc2cc(CNC(=O)c3ccc4c(c3)[C@](C)(C#N)COC4)ncc2s1` [Compound 354], for which the “BRM Max % Inhibition” value came to 79%.

In the case of `COc1cccc2c1CCN(c1ccnc(CNC(=O)c3ccc4c(c3)[C@](C)(C#N)COC4)c1)C2` [Compound 56], the “BRM Max % Inhibition” value was 98%.

With `C[C@@]1(C#N)COCc2c(F)cc(C(=O)NCc3cc4nc(-c5cncc(N6CCC6)n5)ccc4cn3)cc21` [Compound 399], the “BRM Max % Inhibition” value is given as 100%.

For `CN(C)C(=O)c1cccc(-c2ccc3cnc(CNC(=O)c4ccc5c(c4)[C@](C)(C#N)COC5)cc3n2)c1` [Compound 490], the “BRM Max % Inhibition” value amounted to 93%.

Turning to `C[C@@]1(F)COCc2ncc(C(=O)NCc3cc4nc(-c5ccccc5)ccc4cn3)cc21` [Compound 413], the “BRM Max % Inhibition” value is recorded as 92%.

For the compound `C[C@@]1(C#N)COCc2ncc(C(=O)NCc3cc4nc(-c5ccccc5)ccc4cn3)cc21` [Compound 122], the “BRM Max % Inhibition” value turned out to be 94%.

The test is the same for the next values; noted with them: BRM ATPase: IC50 (uM), 30 nM BRM, 400 μM ATP.
As to `Cn1c(C2CC2)cc2c(-c3ccc4cnc(CNC(=O)c5ccc6c(c5)[C@](C)(C#N)COC6)cc4n3)cccc21` [Compound 135], the IC50 is less than 0.1 µM.

In the case of `C[C@@]1(F)COCc2ccc(C(=O)NCc3cc(C#Cc4ccccc4)ccn3)cc21` [Compound 14], the IC50 was 0.5 to 1 µM.

In turn, `CN(C)c1cccc(-c2ccc3cnc(CNC(=O)c4cnc5c(c4)[C@@](F)(C(F)F)COC5)cc3n2)n1` [Compound 227] registered an IC50 of less than 0.1 µM.

In turn, `C[C@@]1(C#N)COCc2ccc(C(=O)NCc3cc4nc(-c5ccccc5)sc4cn3)cc21` [Compound 124] showed an IC50 of less than 0.1 µM.

`C[C@@]1(C#N)COCc2ccc(C(=O)NCc3cc4nc(-c5cnn6c5OCCC6)ccc4cn3)cc21` [Compound 405] returned an IC50 of 0.1 to 0.5 µM.

For `C[C@@]1(C#N)COCc2ccc(C(=O)NCc3cc4nc(-c5cccc(C(F)F)c5)ccc4cn3)cc21` [Compound 98], the IC50 is less than 0.1 µM.

`COC(=O)N1CCCC(C#Cc2ccnc(CNC(=O)c3ccc4c(c3)[C@](C)(C#N)COC4)c2)C1` (stereo partly drawn) [Compound 5] returned an IC50 greater than 1 µM.

With `COc1cncc(-c2ccc3cnc(CNC(=O)c4ccc5c(c4)[C@](C)(C#N)COC5)cc3n2)c1` [Compound 482], the IC50 was 0.1 to 0.5 µM.

Consider `C[C@@]1(C#N)COCc2ccc(C(=O)NCc3cc4nc(-c5cncc(N6CCC6)n5)ccc4cn3)cc21` [Compound 497], for which the IC50 is less than 0.1 µM.

The compound `C[C@@]1(C#N)COCc2ccc(C(=O)NCc3cc4nc(-c5cccc(N6CCC6=O)c5)ccc4cn3)cc21` [Compound 393] displayed an IC50 of less than 0.1 µM.

`COc1cc(C)nn1-c1ccc2cnc(CNC(=O)c3ccc4c(c3)[C@](C)(C#N)COC4)cc2n1` [Compound 195]: the IC50 is 0.1 to 0.5 µM.

The compound `COc1cnn(C)c1-c1ccc2cnc(CNC(=O)c3ccc4c(c3)[C@](C)(C#N)COC4)cc2n1` [Compound 297] yielded an IC50 of 0.1 to 0.5 µM.

`COc1ncccc1-c1nc2cc(CNC(=O)c3ccc4c(c3)[C@](C)(C#N)COC4)ncc2s1` [Compound 354] displayed an IC50 of 0.1 to 0.5 µM.

`COc1cccc2c1CCN(c1ccnc(CNC(=O)c3ccc4c(c3)[C@](C)(C#N)COC4)c1)C2` [Compound 56] had a 50% inhibitory concentration (IC50) of less than 0.1 µM.

Take `C[C@@]1(C#N)COCc2c(F)cc(C(=O)NCc3cc4nc(-c5cncc(N6CCC6)n5)ccc4cn3)cc21` [Compound 399]: the IC50 was less than 0.1 µM.

In the case of `CN(C)C(=O)c1cccc(-c2ccc3cnc(CNC(=O)c4ccc5c(c4)[C@](C)(C#N)COC5)cc3n2)c1` [Compound 490], the IC50 is 0.1 to 0.5 µM.

Regarding `C[C@@]1(F)COCc2ncc(C(=O)NCc3cc4nc(-c5ccccc5)ccc4cn3)cc21` [Compound 413], the IC50 lay in the range of 0.1 to 0.5 µM.

Turning to `C[C@@]1(C#N)COCc2ncc(C(=O)NCc3cc4nc(-c5ccccc5)ccc4cn3)cc21` [Compound 122], the IC50 is 0.1 to 0.5 µM.
